From patent US8318950B2, “N-acyl amino acid derivatives, a method for the preparation thereof, a pharmaceutical composition and use thereof as anti-allergic, anti-inflammatory and hypolipidemic agents” (Otkrytoe Aktsionernoe Obschestvo-Otechestvennye Lekarstva, priority 2005, dated 2012)

Key:
[1] = system: endogenous hypercholesterolemia in guinea pigs; assay: Model of endogenous hypercholesterolemia in guinea pigs (fat loading); type: in vivo, guinea pig; details: during 20 days, doses from 50 to 1,500 μg/kg
[2] = system: guinea pig blood basophils; assay: In vitro ovalbumin (OA)-induced blood basophil degranulation of immunized guinea pig; type: cell-based
Description: Leukocytes from guinea pig blood were isolated according to the Freemel's method [Immunologicheskiye Metody under edition of G. Frimel/Moscow., “Meditsina” publishers, 1987, p. 222 in the inventor's modification].
Guinea pigs of both sexes weighing from 600 to 800 g were used to conduct the test. The animals were once immunized with a mixture of 10 μg ovalbumin and 100 mg aluminum hydroxide per one animal according to Andersson [Anderson P. Antigen-induced bronchial anaphylaxis in actively sensitized guinea-pigs.//Allergy. 1980. Vol. 35. P. 63-71].
Under ester anesthesia, 15 ml blood were drawn from guinea pig heart. Double precipitation of cells using EDTA and a citrate-containing precipitating liquid was used to isolate basophils in the leukocyte suspension.
Blood was mixed with 5% EDTA.Na2 2H2O (“Sigma”) solution at 9:1 ratio and in 30 minutes it was subjected to mild centrifugation (for 12 minutes at 80 g). Supernatant was collected and centrifuged for 15 minutes at 500 g.
To the remaining cells, a citrate-containing precipitating liquid (3) was added at proportion 3:10 (it was thermostated at 37° C. for 30 minutes). A supernatant fraction enriched by leukocytes was centrifuged for 7 minutes at 100 g. To leukocyte precipitate, 0.85% NaCl solution was added and cellular concentration was brought to 30×10^3 μl.
Protocol of the in vitro basophil degranulation test [Spravochnil po klinicheskim laboratomym metodam issledovaniya (A reference book on clinical-laboratory examination methods)/Edited by E. A. Cost/Moscow, “Meditsina” publishers, 1975, p. 130].
For the test, a centrifuge tube (3 tubes per each sample) was filled with 300 μl cellular suspension, then salt solution of a tested compound (or a salt solution in the control of spontaneous and maximum degranulation) was added and pre-incubated at 37° C. for 15 minutes, then into each tube 300 μl 1% OA solution was added (in the control of spontaneous degranulation a salt solution in the same amount was added) and once more pre-incubated at 37° C. for 10 minutes. Functional leukocyte concentration was 10^4/μl. Samples (100 μl) were taken off from each tube into separate tubes to assess a complete basophil degranulation, and to the remained cells, a cooled salt solution was added (5 ml into each tube) to arrest degranulation reaction, then the tubes were centrifuged for 7 min at 100 g, and from precipitate, preparations for microscopy were prepared. The preparations were fixed and stained according to the method of Seder et al. [Seder R. A. et al. Mouse splenic and bone marrow cell populations that express high—affinity Fcε receptors and produce interleukin-4 are highly enriched in basophils.//Proc. Natl. Acad. USA, 1991, V. 88, P. 2835-2839].
In order to detect a specific basophil granulation, the dye 0.5% alcyanic blue (pH 1.0) was used, nuclei were additionally stained with safranin (0.1% solution in 1% acetic acid). The preparations were used to assess a total degranulation inhibition.
A total degranulation inhibition (DI) (%) was calculated according to the formula: […]
max—% of degranulated basophils at the maximum degranulation (OA)
spontaneous—% of degranulated basophils in spontaneous degranulation (control)
experimental—% of degranulated basophils following exposure to the tested compound.
Assessment of a Complete Basophil Degranulation
Samples selected following basophil degranulation test (100 μl each) were poured into tubes with the dye (0.5% alcyane blue, pH 1.0) at ratio 1:1. Staining was carried out at room temperature for not less than 50 min. Stained basophils were calculated using the Fooks-Rosenthal chamber. Inhibition of a complete basophil degranulation (ICD) was calculated according to the formula: ICD(%)=1−[(Mm(c)−Mm(exper.)]/Mm(c)−Mm(OA)]×100, wherein
M m (c)—mean (by three samples) basophil number in the spontaneous basophil degranulation test
M±m (OA)—mean (by three samples) basophil number in the maximum antigen-induced basophil degranulation test; […]

[3] = system: antigen-induced bronchial spasm in sensitized guinea pigs; assay: Systemic anaphylaxis in vivo: antigen-induced bronchial spasm in ovalbumin-sensitized conscious guinea pigs; set-up: species or system guinea pig
From the text: A bronchial spasm model in conscious guinea pigs actively sensitized by exposure to aerosol ovalbumin as an antigen was used [Kovaleva V. L. “Metodicheskiye ukazaniya po izucheniyu bronkholiticheskikh I protivovospalitel'nykh sredstv.//Rukovodstvo po experimental'nomy (doklinicheskomu) izucheniyu novykh pharmacologicheskikh veshchestv, Moscow. 2000. pp. 242-250].
Guinea pigs were sensitized by ovalbumin according to the method of Andersson [Anderson P. Antigen-induced bronchial anaphylaxis in actively sensitized guinea-pigs.//Allergy. 1980. Vol. 35. P. 63-71] and in 1-2 months following sensitization, bronchial spasm was induced by aerosol administration of albumin booster dose (3 mg/kg in 1 ml normal saline).
In test groups, guinea pigs were for three days administered with tested compounds at doses 10 μg/kg, 50 μg/kg, and 150 μg/kg, using a probe. In the other group of experiments, the tested compounds at dose 50 μg/kg (in 1 ml normal saline) were administered nasally (using a nebulizer) also once daily for three days. The control group was administered with normal saline. One hour post the last administration of substances, ovalbumin was administered by inhalation using a nebulizer, and intensity and duration (in seconds) of bronchial spasm reaction in animals was assessed.

[4] = by inhalation, 50 μg/kg, once daily for three days
[5] = intragastric, 10 μg/kg, three days
[6] = intragastric, 150 μg/kg, three days

SMILES: O=C(O)CCCC(=O)N[C@@H](Cc1c[nH]cn1)C(=O)O [Compound IV, N^α-glutaryl-L-histidine]
- lowering total cholesterol level at different doses (FIG. 1) [1]: practically similarly effective in lowering total cholesterol level
- Number of completely degranulated basophils ([2]; 10^−3 M): 2.6 ± 2.6 %
- Number of completely degranulated basophils ([2]; 10^−4 M): 2.9 ± 1.6 %
- Number of completely degranulated basophils ([2]; 10^−5 M): 0%
- Number of completely degranulated basophils ([2]; 10^−6 M): 3.9 ± 0.6%
- Number of completely degranulated basophils ([2]; 10^−7 M): 9.1 ± 0.8%
- inhibition at 1000 µM ([2]; Cavia porcellus, 10^−3 M, read-out: Complete degranulation inhibition (CDI)): 99.2 ± 11.2%
- inhibition at 100 µM ([2]; Cavia porcellus, 10^−4 M, read-out: Complete degranulation inhibition (CDI)): 99.5 ± 12%
- inhibition at 10 µM ([2]; Cavia porcellus, 10^−5 M, read-out: Complete degranulation inhibition (CDI)): 114 ± 2.7%
- inhibition at 1 µM ([2]; Cavia porcellus, 10^−6 M, read-out: Complete degranulation inhibition (CDI)): 90 ± 1.8%
- inhibition at 0.1 µM ([2]; Cavia porcellus, 10^−7 M, read-out: Complete degranulation inhibition (CDI)): 76.7 ± 1.5%
- degranulation inhibition in the test of complete OA-induced degranulation ([2]; calcium free medium): ~100%
- Duration of acute phase [3, 4]: 0 s
- Duration of sub-acute phase [3, 4]: 400 ± 25 s
- Duration of acute phase [3, 5]: 68.0 ± 54.7 s
- Total reaction time [3, 5]: 428.0 ± 75.0 s
- Duration of acute phase [3, 6]: 72.0 ± 42.1 s
- Total reaction time [3, 6]: 337.0 ± 78.5 s
